Entries after “also recorded” stand apart in the source; their conditions may differ.
How the values were obtained:
[1] = target: soluble T cell receptor P14; assay: SPR
[2] = test system: endogenous CD8^+ T cells; conditions: mouse, in vivo; cited from earlier work
[3] = test system: H-2D^b/peptide complexes (pMHC); set-up: species or system murine; conditions: for melting temperature (Tm): pH 7.4
[4] = test system: TCR P14; type: binding
[5] = target: H-2D^b (Mus musculus, UniProt P01899); set-up: species or system murine
Sequence of H-2D^b (P01899 whole entry, looked up): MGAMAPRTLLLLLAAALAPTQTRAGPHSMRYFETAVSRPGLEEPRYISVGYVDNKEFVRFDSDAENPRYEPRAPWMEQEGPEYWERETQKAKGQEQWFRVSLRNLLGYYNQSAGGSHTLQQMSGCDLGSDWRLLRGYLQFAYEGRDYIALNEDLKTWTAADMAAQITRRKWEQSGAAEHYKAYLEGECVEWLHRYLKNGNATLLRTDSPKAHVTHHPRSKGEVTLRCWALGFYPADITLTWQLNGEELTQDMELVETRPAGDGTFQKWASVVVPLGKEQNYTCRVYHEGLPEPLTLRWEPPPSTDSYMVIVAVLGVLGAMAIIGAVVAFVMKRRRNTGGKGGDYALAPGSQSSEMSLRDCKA

Row | Substance | melting temperature (Tm) [3] [°C] | binding by TCR P14 (in words) [4] | thermal stability of pMHC (in words) [3] | conformation of p6f / p4Y side chains and H155 [5] | distances H-2D^b W73:NH–p6:CO and H-2D^b Y156:OH–p6:NH [5] | pMHC complex formation [5] | further results
1 | H-2D^b/gp33 (from UniProt P01887) (peptide-MHC) |  |  |  |  |  |  | Kd [1]: 6.3 µM
2 | KAPFNFATM [V3P_Y4F] |  |  |  |  |  |  | recognition of Y4F-presenting infected cells by endogenous CD8^+ T cells [2]: efficiently restores recognition of infected cells presenting Y4F by endogenous CD8^+ T cells
3 | KAPYNFATM [V3P] | 66.0 |  |  |  |  |  | 
4 | KAPYNfATM [V3P_F6f] | 64.0 | reduced P14 affinity; also recorded: significantly reduced binding by the H-2D^b/gp33-specific TCR P14 | slight decrease in stability | prevents the H-2D^b residue H155 to rotate counter clock wise and to assume a TCR-bound-like conformation | both distances increase in comparison to the corresponding structures with the L-amino acid | does not compromise complex formation | 
5 | KAVYNFATM [gp33, reference compound] | 63.5 |  |  |  |  |  | 
6 | KAVYNfATM [F6f] | 61.5 | reduced P14 affinity; also recorded: significantly reduced binding by the H-2D^b/gp33-specific TCR P14 | slight decrease in stability | the side chain of p6f takes a different conformation in H-2D^b/F6f compared to H-2D^b/gp33 | both distances increase in comparison to the corresponding structures with the L-amino acid | does not compromise complex formation | 
